Assay type in all cases: biochemical
One experiment addresses T1, CDK-2/Cyclin A (Homo sapiens, UniProt P24941).
T1 construct: 25 nM CDK-2/Cyclin A
The experiment is described as follows: Inhibition of CDK-2, coupled enzyme assay. The settings on record: 100 μM ATP, 30° C. How it is done: Compounds are screened for their ability to inhibit CDK-2/Cyclin A using a standard coupled enzyme assay [Fox et al. Protein Sci. 1998, 7, 2249]. Reactions were carried out in 100 mM HEPES (pH 7.5), 10 mM MgCl2, 25 mM NaCl, 1 mM DTT and 1.5% DMSO. Final substrate concentrations in the assay are 100 μM ATP (Sigma chemicals) and 100 μM peptide (American Peptide, Sunnyvale, Calif.). Assays are carried out at 30° C. and 25 nM CDK-2/Cyclin A. Final concentrations of the components of the coupled enzyme system are 2.5 mM phosphoenolpyruvate, 350 μM NADH, 30 μg/ml pyruvate kinase and 10 μg/ml lactate dehydrogenase.
An assay stock buffer solution is prepared containing all of the reagents listed above, with the exception of CDK-2/Cyclin A, DTT and the test compound of interest. 56 μl of the test reaction is placed in a 384 well plate followed by addition of 1 μl of 2 mM DMSO stock containing the test compound (final compound concentration 30 μM). The plate is preincubated for ˜10 minutes at 30° C. and the reaction initiated by addition of 10 μl of enzyme (final concentration 25 nM). Rates of reaction are obtained using a BioRad Ultramark plate reader (Hercules, Calif.) over a 5 minute read time at 30° C. Ki values are determined according to standard methods.

The target of a further experiment is T2, JAK-3 (Homo sapiens, UniProt P52333).
T2 sequence (P52333 1-1124): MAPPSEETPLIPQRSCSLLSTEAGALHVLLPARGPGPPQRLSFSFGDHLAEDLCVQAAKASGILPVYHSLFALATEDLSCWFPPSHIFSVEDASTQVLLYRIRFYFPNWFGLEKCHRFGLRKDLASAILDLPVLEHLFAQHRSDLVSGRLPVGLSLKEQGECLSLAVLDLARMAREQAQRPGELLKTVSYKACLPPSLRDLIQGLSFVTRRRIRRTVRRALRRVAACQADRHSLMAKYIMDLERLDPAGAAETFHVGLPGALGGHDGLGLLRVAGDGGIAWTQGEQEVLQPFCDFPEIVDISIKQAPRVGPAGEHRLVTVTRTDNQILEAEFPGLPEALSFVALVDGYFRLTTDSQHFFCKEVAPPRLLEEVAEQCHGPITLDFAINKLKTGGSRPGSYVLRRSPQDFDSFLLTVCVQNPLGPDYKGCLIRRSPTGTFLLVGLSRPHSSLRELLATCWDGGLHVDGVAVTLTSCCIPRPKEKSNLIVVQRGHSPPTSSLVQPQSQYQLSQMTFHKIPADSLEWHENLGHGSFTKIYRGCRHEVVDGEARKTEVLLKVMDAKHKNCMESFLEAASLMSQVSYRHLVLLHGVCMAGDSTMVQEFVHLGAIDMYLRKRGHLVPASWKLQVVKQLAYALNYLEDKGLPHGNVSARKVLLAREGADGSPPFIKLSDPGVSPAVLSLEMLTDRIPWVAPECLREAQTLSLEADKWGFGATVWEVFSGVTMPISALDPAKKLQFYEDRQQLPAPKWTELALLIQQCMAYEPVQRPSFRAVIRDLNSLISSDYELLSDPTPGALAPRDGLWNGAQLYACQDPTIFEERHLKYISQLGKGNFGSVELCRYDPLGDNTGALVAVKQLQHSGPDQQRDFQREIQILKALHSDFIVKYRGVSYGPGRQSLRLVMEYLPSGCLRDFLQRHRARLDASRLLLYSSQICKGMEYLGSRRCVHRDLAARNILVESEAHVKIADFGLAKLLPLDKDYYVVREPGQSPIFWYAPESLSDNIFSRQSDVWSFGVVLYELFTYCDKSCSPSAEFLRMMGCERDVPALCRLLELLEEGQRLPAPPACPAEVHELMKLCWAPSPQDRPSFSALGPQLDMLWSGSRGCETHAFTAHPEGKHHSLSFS
The experiment is described as follows: JAK3 inhibition assay (ELISA, Poly (Glu, Ala, Tyr) coated plates). The settings on record: 2 μM ATP. As to the method: Compound inhibition of JAK was assayed by the method described by G. R. Brown, et al, Bioorg. Med. Chem. Lett. 2000, vol. 10, pp 575-579 in the following manner. Into Maxisorb plates, previously coated at 4° C. with Poly (Glu, Ala, Tyr) 6:3:1 then washed with phosphate buffered saline 0.05% and Tween-(PBST), was added 2 μM ATP, 5 mM MgCl2, and a solution of compound in DMSO. The reaction was started with JAK enzyme and the plates incubated for 60 minutes at 30° C. The plates were then washed with PBST, 100 μL HRP-Conjugated 4G10 antibody was added, and the plate incubated for 90 minutes at 30° C. The plate was again washed with PBST, 100 μL TMB solution is added, and the plates were incubated for another 30 minutes at 30° C. Sulfuric acid (100 μL of 1M) was added to stop the reaction and the plate is read at 450 nm to obtain the optical densities for analysis to determine Ki values.
A general note: An ELISA detects its analyte on a solid surface through an enzyme-linked reagent.

For the next experiment, the target named is KDR (Homo sapiens, UniProt P35968). The experiment can be described thus: Inhibition of KDR, coupled enzyme assay. The settings on record: 300 μM ATP, 37° C. How it is done: Compounds were screened for their ability to inhibit KDR using a standard coupled enzyme assay (Fox et al., Protein Sci., (1998) 7, 2249). Assays were carried out in a mixture of 200 mM HEPES 7.5, 10 mM MgCl2, 25 mM NaCl, 1 mM DTT and 1.5% DMSO. Final substrate concentrations in the assay were 300 μM ATP (Sigma Chemicals) and 10 μM poly E4Y (Sigma). Assays were carried out at 37° C. and 30 nM KDR. Final concentrations of the components of the coupled enzyme system were 2.5 mM phosphoenolpyruvate, 200 μM NADH, 30 μg/ML pyruvate kinase and 10 μg/ml lactate dehydrogenase.
An assay stock buffer solution was prepared containing all of the reagents listed above, with the exception of ATP and the test compound of interest. 177 μl of the stock solution was placed in a 96 well plate followed by addition of 3 μl of 2 mM DMSO stock containing the test compound (final compound concentration 30 μM). The plate was preincubated for about 10 minutes at 37° C. and the reaction initiated by addition of 20 μl of ATP (final concentration 300 μM). Rates of reaction were obtained using a Molecular Devices plate reader (Sunnyvale, Calif.) over a 5 minute read time at 37° C.

Sequence of KDR (P35968 20-1356): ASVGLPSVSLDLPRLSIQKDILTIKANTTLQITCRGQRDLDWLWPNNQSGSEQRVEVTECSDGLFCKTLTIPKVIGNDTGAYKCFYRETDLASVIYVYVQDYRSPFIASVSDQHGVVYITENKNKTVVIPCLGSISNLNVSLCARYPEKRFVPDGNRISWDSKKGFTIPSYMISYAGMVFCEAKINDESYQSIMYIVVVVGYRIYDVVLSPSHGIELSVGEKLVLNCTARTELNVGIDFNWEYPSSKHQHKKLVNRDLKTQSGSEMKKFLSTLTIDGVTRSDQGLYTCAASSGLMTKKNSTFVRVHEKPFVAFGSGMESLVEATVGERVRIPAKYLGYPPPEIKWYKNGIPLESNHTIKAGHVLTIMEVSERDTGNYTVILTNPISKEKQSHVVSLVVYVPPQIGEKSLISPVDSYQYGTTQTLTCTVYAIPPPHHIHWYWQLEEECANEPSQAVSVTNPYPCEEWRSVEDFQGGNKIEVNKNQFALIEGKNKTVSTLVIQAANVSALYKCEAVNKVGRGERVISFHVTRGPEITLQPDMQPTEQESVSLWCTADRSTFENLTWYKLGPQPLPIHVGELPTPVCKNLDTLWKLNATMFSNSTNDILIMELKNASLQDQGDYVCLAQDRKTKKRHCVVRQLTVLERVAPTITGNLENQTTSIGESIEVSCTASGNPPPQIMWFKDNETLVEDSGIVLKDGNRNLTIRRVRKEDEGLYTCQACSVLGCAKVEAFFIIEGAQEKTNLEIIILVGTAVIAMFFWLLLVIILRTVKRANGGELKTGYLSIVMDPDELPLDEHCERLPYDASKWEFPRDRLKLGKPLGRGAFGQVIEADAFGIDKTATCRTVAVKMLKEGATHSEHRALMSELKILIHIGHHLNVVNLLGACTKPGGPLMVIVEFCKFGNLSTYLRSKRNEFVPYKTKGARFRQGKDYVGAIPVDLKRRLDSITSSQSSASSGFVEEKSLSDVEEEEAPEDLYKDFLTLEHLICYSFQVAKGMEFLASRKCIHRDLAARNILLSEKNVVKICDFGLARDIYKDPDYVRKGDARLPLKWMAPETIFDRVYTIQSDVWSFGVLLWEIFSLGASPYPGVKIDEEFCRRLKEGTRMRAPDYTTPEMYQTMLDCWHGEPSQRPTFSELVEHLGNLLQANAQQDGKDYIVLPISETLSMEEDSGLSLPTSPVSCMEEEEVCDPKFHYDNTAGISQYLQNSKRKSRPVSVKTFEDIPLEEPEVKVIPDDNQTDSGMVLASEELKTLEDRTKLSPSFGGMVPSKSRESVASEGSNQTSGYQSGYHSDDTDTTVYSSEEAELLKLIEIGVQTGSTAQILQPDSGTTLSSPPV

As a reminder, the Ki is the dissociation constant of the complex between target and ligand, obtained from inhibition or displacement. As to `COc1cc(Nc2ncn(-c3ccccc3)n2)cc(OC)c1OC` [Compound I-42], the Ki at CDK-2/Cyclin A is above 1000 nM; on JAK-3, 10 to 1000 nM.
Take `COc1cc(Nc2ncn(-c3ccc(C#N)cc3)n2)cc(OC)c1OC` [Compound I-43]: the inhibitory constant (Ki) at CDK-2/Cyclin A lay within 500 to 1000 nM; at JAK-3, 10 to 1000 nM.
Take `c1ccc(-n2cnc(Nc3ccc4c(c3)OCCO4)n2)cc1` [Compound I-44]: the Ki on CDK-2/Cyclin A and on JAK-3 was above 1000 nM each time.
On to `CCOc1cccc(Nc2ncn(-c3ccccc3)n2)c1` [Compound I-45], for which the inhibition constant Ki on CDK-2/Cyclin A and on JAK-3 was above 1000 nM in each case.
In the case of `CC(C)Oc1cccc(Nc2ncn(-c3ccccc3)n2)c1` [Compound I-46], the inhibition constant Ki at CDK-2/Cyclin A and on JAK-3 was above 1000 nM throughout.
Take `CCOc1ccc(Nc2ncn(-c3ccccc3)n2)cc1` [Compound I-47]: the Ki on CDK-2/Cyclin A and at JAK-3 was above 1000 nM each time.
For `c1ccc(Nc2ncn(-c3ccnc(N4CCCCC4)c3)n2)cc1` [Compound I-49, phenyl-[1-(3,4,5,6-tetrahydro-2H-[1,2′]bipyridinyl-4′-yl)-1H-[1,2,4]triazol-3-yl]-amine], the Ki on CDK-2/Cyclin A was below 500 nM; on JAK-3, 10 to 1000 nM; on KDR, below 100 nM.
For `c1ccc(Nc2ncn(-c3ccnc(NC4CCCCC4)c3)n2)cc1` [Compound I-50], the Ki on CDK-2/Cyclin A is below 500 nM; at JAK-3 it was 10 to 1000 nM; on KDR, 100 to 1000 nM.
As for `CN(CCO)c1cc(-n2cnc(Nc3ccccc3)n2)ccn1` [Compound I-51], the Ki on CDK-2/Cyclin A was below 500 nM; at JAK-3 it was 10 to 1000 nM; on KDR, below 100 nM.
On to `c1ccc(Nc2ncn(-c3ccnc(N4CCCCCCC4)c3)n2)cc1` [Compound I-52], for which the values for the Ki on CDK-2/Cyclin A, at JAK-3 and at KDR were below 500 nM, 10 to 1000 nM and below 100 nM, respectively.
As for `CN(C)CCCN(C)c1cc(-n2cnc(Nc3ccccc3)n2)ccn1` [Compound I-53], the inhibition constant (Ki) on CDK-2/Cyclin A is above 1000 nM; on JAK-3 it was above 1000 nM; on KDR, 100 to 1000 nM.
In the case of `CCN(CCO)c1cc(-n2cnc(Nc3ccccc3)n2)ccn1` [Compound I-54], the inhibitory constant (Ki) on CDK-2/Cyclin A was below 500 nM; at JAK-3, 10 to 1000 nM; on KDR, below 100 nM.
As to `CN(Cc1ccccc1)c1cc(-n2cnc(Nc3ccccc3)n2)ccn1` [Compound I-55], the Ki was below 500 nM at CDK-2/Cyclin A, 10 to 1000 nM at JAK-3 and 100 to 1000 nM on KDR.
Consider `CC1CCCN1c1cc(-n2cnc(Nc3ccccc3)n2)ccn1` (centres unmarked) [Compound I-56], for which the figures for the Ki at CDK-2/Cyclin A, on JAK-3 and on KDR were below 500 nM, 10 to 1000 nM and below 100 nM, respectively.
Taken in the same sequence, the figures for `CN(Cc1cccnc1)c1cc(-n2cnc(Nc3ccccc3)n2)ccn1` [Compound I-57] were below 500 nM, 10 to 1000 nM and below 100 nM.
Taken in the same sequence, the figures for `CCCN(CCO)c1cc(-n2cnc(Nc3ccccc3)n2)ccn1` [Compound I-58] were below 500 nM, 10 to 1000 nM and below 100 nM.
As to `COCCN(C)c1cc(-n2cnc(Nc3ccccc3)n2)ccn1` [Compound I-59, (2-methoxy-ethyl)-methyl-[4-(3-phenylamino-[1,2,4]triazol-1-yl)-pyridin-2-yl]-amine], the values for the inhibition constant Ki on CDK-2/Cyclin A, at JAK-3 and on KDR were below 500 nM, 10 to 1000 nM and below 100 nM, respectively.
As for `CCN(CC)CCNc1cc(-n2cnc(Nc3ccccc3)n2)ccn1` [Compound I-60], the Ki at CDK-2/Cyclin A, at JAK-3 and on KDR was above 1000 nM in each case.
Take `CN1C(C)(C)CC(Nc2cc(-n3cnc(Nc4ccccc4)n3)ccn2)CC1(C)C` [Compound I-61]: the Ki at CDK-2/Cyclin A was 500 to 1000 nM; on JAK-3, above 1000 nM; on KDR it was 100 to 1000 nM.
Turning to `CN1CCN(c2ccc(Nc3ncn(-c4ccccc4)n3)cn2)CC1` [Compound I-135], the Ki on CDK-2/Cyclin A and on JAK-3 was above 1000 nM in each case.
